Where two headings read alike, the source gives them in different places.
Columns and labels:
A549 cells = assay: MTT assay (mitochondrial metabolism); assay type: cell-based; details: Homo sapiens, read-out: IC50 MTT assay
Text: (§1) MTT assay is the most commonly used method for high-throughput identification of the antiproliferative effects of compounds on cultured cells and is indirectly correlated with mitochondria-dependent apoptosis progression[59]–[61]. The production of reducing equivalents such as NADH in metabolically active cells is an indicator of “cell redox activity”, indirectly reflecting the number of viable cells[60],[61] and the mitochondrial metabolic rate in cells[62],[63].
(§2) A549, Caco-2, HepG2 and TelCOFS02MA cells (1 × 10^4 cells/well), and MDA-MB-231 cells (0.5 × 10^4 cells/well) were seeded in 100 µL of fresh medium into 96-well plates (TC-Plate 96 wells, Sarstedt, Verona, Italy) in quadruplicate for 24 h at 37 °C in a humidified atmosphere of 95% air plus 5% CO2. Then, the medium was removed and replaced with 200 µL of media with different concentrations of CBD (5–80 µM, dilution factor [DF] equal to 2) and CBDV (5.5–88 µM, DF = 2) chosen on the basis of range-finding tests (0.5, 5, and 50 mg/L). We chose 1.56–25 mg/L to be tested and, to make easier the comparison between the two cannabinoids activities, the concentrations were reported in [μM]. In all experiments, negative controls (wells containing cells exposed only to the medium) and solvent controls (wells containing cells exposed to 2.5% methanol) were included. The plates were incubated at 37 °C for three exposure times: 24, 48 and 72 h (different plates were prepared for each specific time point). Then, MTT solution (5 mg/mL) was added to each well, and the plates were re-incubated for 4 h at 37 °C. The culture medium was removed, and 2-propanol was used to dissolve formazan crystals. The absorbance of formazan was measured spectrophotometrically at 590 nm using an automated microplate reader (Synergy H1, Biotek, Winooski, USA). The results are reported as the percentages of cells with inhibited proliferation, as determined by the link between the inhibition of mitochondrial metabolic activity and proliferation. The results were calculated with the following formula:1 IC%=1-OD590sample/OD590negativecontrol·100
(§3) Furthermore, IC50 values (concentrations of the sample used to obtain an inhibition of 50% of cell growth/metabolic activity) were calculated.
(§4) All results from five independent experiments are expressed as the IC50 or EC50 as determined by analysis with Prism 5 software (GraphPad Inc., San Diego, CA, USA) and nonlinear regression (log agonist vs. normalized response-variable slope) with a 95% confidence range. Lowest observed adverse effect concentrations (LOAECs) were calculated by one-way ANOVA and Dunnett’s comparison test. Differences compared to the controls were considered significant as follows: *p < 0.05, **p < 0.001 and ***p < 0.0001.

Hep G2 cells [1] = assay: MTT assay (mitochondrial metabolism); assay type: cell-based; details: Homo sapiens, read-out: IC50 MTT assay
Text: as §1, §2, §3, §4

TelCOFS02MA cells = assay: BrdU-ELISA (DNA synthesis inhibition); assay type: cell-based, human; details: for IC50: Homo sapiens, read-out: IC50 BrdU-ELISA
Protocol: (§5) BrdU-ELISA was performed according to the protocol described by Lehmann and collaborators, and the results were used to evaluate the inhibition of DNA synthesis. A total of 1 × 10^4 cells/well were seeded in 100 µL of fresh medium into 96-well plates in triplicate at 37 °C in a humidified atmosphere of 95% air plus 5% CO2 for 24 h. Then, the medium was removed and replaced with 200 µL of medium with the same concentrations of CBD and CBDV that had been used in the previous test. In all experiments, blanks (wells with medium and without cells), negative controls (with only medium) and solvent controls (2.5% methanol) were included. The plates were incubated at 37 °C for 72 h. Then, 20 µL of 100 µM BrdU labelling solution was added to each well and incubated for 2 h at 37 °C. After removing the labelling solution, 200 µl of DNA fixing/denaturing solution was added to each well and incubated for 30 min at room temperature. After its discharge, 100 µL of the anti-BrdU-POD antibody solution [0.075 U/mL] was added to each well and incubated for 90 min at room temperature. After several washing steps with 1X PBS (200–300 µL/well), 100 µl of tetramethylbenzidine (TMB) was added to each well and incubated for 20–30 min (sufficient time for the colour change). The incorporation of BrdU into DNA was quantified spectrophotometrically at 370 nm. […] The mean absorbance of the control cells represented 100% cell proliferation, and the mean absorbance of the treated cells was related to the control values to determine cell sensitivity. Inhibition (%) of DNA synthesis/cell viability was determined as follows:2 IC%=1-OD370sample/OD370negativecontrol·100
(§6) IC50 values (representing the median concentration at which DNA synthesis and cell viability were reduced by 50%) were calculated.
as §4

Hep G2 cells [2] = assay: BrdU-ELISA (DNA synthesis inhibition); assay type: cell-based, human; details: for IC50: Homo sapiens, read-out: IC50 BrdU-ELISA
Protocol: as §5, §6, §4

Caco-2 cells = assay: BrdU-ELISA (DNA synthesis inhibition); assay type: cell-based, human; details: for IC50: Homo sapiens, read-out: IC50 BrdU-ELISA
Protocol: as §5, §6, §4

S. aureus = system: S. aureus; set-up: method as in PMID 33469147; details: S. aureus exposed at 6–14 µM; cited from earlier work
[3] = system: SZ95, normal-like sebocytes; set-up: method as in PMID 27094344; details: 24 h of treatment; cited from earlier work
[4] = HepG2, Hep G2, 72 h exposure, 95% confidence interval in brackets

Compound: C=C(C)[C@@H]1CCC(C)=C[C@H]1c1c(O)cc(CCCCC)cc1O [CBD, Cannabidiol]
- IC50 (A549 cells; A549, 72 h exposure, 95% confidence interval in brackets): 27.7 µM
- IC50 (Hep G2 cells [1]; [4]): 15.8 µM
- IC50 (TelCOFS02MA cells; TelCOFS02MA, 72 h exposure, 95% confidence interval in brackets): 49.1 µM
- IC50 (Hep G2 cells [2]; [4]): 39.2 µM
- IC50 (Caco-2 cells; Caco-2, 72 h exposure, 95% confidence interval in brackets): 33.3 µM
- protein, DNA, RNA and peptidoglycan synthesis (S. aureus): inhibited

Compound: C=C(C)[C@@H]1CCC(C)=C[C@H]1c1c(O)cc(CCC)cc1O [CBDV, cannabidivarin]
- IC50 (A549 cells; A549, 72 h): 32.9 µM
- IC50 (Hep G2 cells [1]; HepG2, 72 h): 19.7 µM
- IC50 (TelCOFS02MA cells; 72 h): 69.1 µM
- LOAEC BrdU-ELISA (TelCOFS02MA cells; TelCOFS02MA, 72 h): 44 µM
- LOAEC BrdU-ELISA (Hep G2 cells [2]; Hep G2, 72 h): 22 µM
- IC50 (Hep G2 cells [2]; HepG2, 72 h): 46.7 µM
- LOAEC BrdU-ELISA (Caco-2 cells; Caco-2, 72 h): 22 µM
- IC50 (Caco-2 cells; Caco-2, 72 h): 40.4 µM
- concentration giving a significant decrease in cell viability (MTT) [3]: 100 nM
